In a melting point compilation (Tetko et al.; mined from patent text by program, amines drawn as free bases though some values may be those of a salt) one finds melting point data, which are given here for 88 compounds.

Consider `CC(C)(C)c1cc(CSP(=S)(C2CCCCC2)C2CCCCC2)cc(C(C)(C)C)c1O`, for which the melting point lay within 129 to 131 °C.
Then `COc1ccccc1-n1nnc2cc(F)c(N3C(=O)C4=C(CCCC4)C3=O)cc21`, with 83 to 87 °C.
Then `BrCCCCCCOc1nc(-c2ccccc2)c(-c2ccccc2)n1-c1ccccc1`, with 87 to 89 °C; and `CCCc1c(O)c(C(C)=O)cc(C(C)=O)c1NCC`, with 114 to 115 °C; and `Fc1ccc(OC2CN(CCc3c[nH]c4ccccc34)C2)cc1`, with 111 to 113 °C.
`CN(c1cc(OCCCS(C)(=O)=O)cc2cc(C3=NCC(CN4CCN(S(C)(=O)=O)CC4)S3)[nH]c12)S(=O)(=O)c1ccccn1` (stereo not drawn) displayed a melting point of 151 to 153 °C.
In turn, `O=C(c1ccc(CN2CCOCC2)cc1)c1cccc2nc(N[C@@H]3CCc4ccccc43)ccc12` registered a melting point of 160 °C.
The compound `CC(c1ccc(Cl)cc1)N1CCNC1=NC(N)=S` (stereo not drawn) returned a melting point of 107 °C.
Then `Cc1ccn(-c2nc(C)c(C(=O)NCc3ccccc3)s2)c(=O)c1`, with 145 to 147 °C.
Then `Cn1cc(-c2cccc(-n3ncc4cc(C(C)(C)C)cc(F)c4c3=O)c2CO)cc(Nc2ccc(C(C)(C)O)cn2)c1=O`, with 200 to 205 °C; and `CCCCC1(CCCC)c2cc(Br)ccc2-c2ccc(Br)cc21`, with 117 to 118 °C.
Then `CCN(CC)CCNC(=O)c1cc(Cl)c(N)cc1OCCCS(C)=O` (stereo not drawn), with 116 to 117 °C; and `COc1ccc(-n2nc(-c3ccc(F)cc3)c(-c3ccncc3)c2-c2c[nH]cn2)cc1`, with 124 to 126 °C.
`Cc1ccc(S(=O)(=O)C2(CC#Cc3ccc(Cl)cc3)CC(=O)NC2=O)cc1` (stereo not drawn) had a melting point of 186 to 188 °C.
The compound `Cc1nnc(-c2ccc3occ(-c4cccnc4)c3c2)o1` displayed a melting point of 139 to 140 °C.
Compound `O=C(NC1CCN(C2CCCCC2)C1)c1cc([N+](=O)[O-])cc([N+](=O)[O-])c1` (stereo not drawn) came in with a melting point of 159 to 161 °C.
The value for `COc1ccc(-c2csc(N(C)c3cc4ccccc4cn3)n2)cc1OC` was 165 to 166 °C.
Then `CCCC(O)c1c(C)c(NC(=O)CC(C)(C)C)c(C)c2c1OCC2c1ccc(C(C)C)cc1` (stereo not drawn), with 150 to 151 °C; and `COc1ccc(-c2ccc3c(c2)CCCC3=O)c2c1OCCO2`, with 156 to 158 °C; and `CCC(=O)Nc1nc(C)c(C(=O)NCc2ccccc2)s1`, with 175 to 176 °C.
In turn, `O=C(O)c1ccc(C=NS(=O)(=O)c2ccc(Cl)cc2)cc1` had a melting point of over 245 °C.
Then `CC1C(=O)CCC2(C)C1CCC1C3CCC(=Cc4ccccc4Cl)C3(C)CCC12` (stereo not drawn), with 205 to 208 °C; and `CC1(C)CCN(c2cccc(-c3cnc4[nH]cc(C(=O)C(C)(C)C)c4n3)c2)C1`, with 233 to 235 °C.
The value for `COC1(C)CN(c2ccc(N3C[C@H](CNC(C)=O)OC3=O)cc2F)C1` was 113 to 114 °C; that for `COc1cccc(Cn2cc3c(-c4cccc(C(=O)NCCC#N)c4)cccc3n2)c1` was 176 to 177 °C; that for `c1ccc2c(N3CCN(CCc4ccc(-c5csnn5)cc4)CC3)nsc2c1` was 257 to 259 °C.
The value for `CCCC(=O)NCCCCn1c(C)nc2c(N)nc3ccccc3c21` was 169 to 170 °C; that for `Nc1sc2c(c1C(=O)c1cccc(CF)c1)CCN(Cc1ccccc1)C2` was 58 to 60 °C.
Compound `FC(F)(F)c1ccc(Cl)nn1` yielded a melting point of 51 to 52 °C.
Then `CN(C)CCNC(=O)c1cccc([N+](=O)[O-])c1`, with 89 to 90 °C.
The value for `O=c1[nH]cncc1Cc1cccnc1` was 145 to 148 °C; that for `COC(=O)C(NC(=O)c1ccccc1)C(C)=O` (stereo not drawn) was 113 °C.
The compound `CC(=O)OC1CSC(Oc2cncc(-c3ccc(C#N)cc3C)c2)C(OC(C)=O)C1OC(C)=O` (stereo not drawn) returned a melting point of 136 to 138 °C.
The value for `O=C1OC(c2ccc(Cl)cc2)c2ccccc21` (stereo not drawn) was 124 °C; that for `CCCC1CCC(c2ccc(-c3cc(F)c(C(F)(F)Oc4cc(F)c(C(F)(F)F)c(F)c4)c(F)c3)c(F)c2)CC1` (stereo not drawn) was 86 °C.
The value for `CCOc1ccccc1C(=O)Nc1ccc2oc(Nc3ccc(CC)cc3)nc2c1` was 182 °C; that for `CSC(=C[N+](=O)[O-])NCCSCc1ncccc1Cl` was 80 to 82.5 °C.
The value for `O=C(O)C1CCc2c(c3ccccc3n2C(=O)c2cccc(Br)c2)C1` (stereo not drawn) was 185 to 186 °C.
In turn, `O=C1Cc2cccc(Oc3ccccn3)c2N1` came in with a melting point of 187 to 191 °C.
Then `N=C(N)NCCCC(NC(=O)C(CS)Cc1ccccc1)C(=O)O` (stereo not drawn), with 135 °C; and `CCCc1nc2c(N)nc3cccnc3c2n1CCCCS(=O)(=O)N(C)C`, with 162 to 163 °C; and `O=C(CCn1ccnc1)Cc1c(Cl)cccc1Cl`, with 98.5 to 102 °C.
Then `N#CN=C(N)NCCCCNC(=O)C1(NC(=O)CCCC(=O)O)Cc2ccccc2C1`, with 105 °C; and `Cn1cc(-c2ccccc2)c(=O)c(-c2ccc(F)cc2)c1`, with 166 °C.
The value for `CC(C)c1cc(C(=O)Nc2ccc(C(=O)O)c(O)c2)sc1C(C)C` was 129 to 130 °C.
As to `COc1ccc2c(c1)SSSSS2`, the melting point is 97 to 98 °C.
In turn, `CC(=CC#N)CN1C(=O)c2ccccc2S1(=O)=O` gave a melting point of 119 to 121 °C.
Then `Cc1cc(S(=O)(=O)O)c(NC(=O)Nc2cc3ccccc3[nH]2)cc1Cl`, with 284 to 286 °C; and `O=C(O)COc1ccc(-c2c3ccc(OCC(=O)O)cc3cc3sc4ccccc4c23)cc1`, with 245 to 246 °C; and `CC(C)C(=O)NCCNCC(O)COc1ccc(O)c(CO)c1` (stereo not drawn), with 148 to 149 °C.
As for `CCn1nc(-c2ccc(F)cc2)c(C(C)=O)c(Nc2cccc3cccnc23)c1=O`, the melting point was 154 °C.
The value for `COC(=O)c1c(Cc2ccc(C(=O)N(C)C)nc2)c(=O)c2ccc(C)nc2n1-c1ccccc1` was 235 to 236 °C; that for `COc1ccc2[nH]c3cc(-c4cccc([N+](=O)[O-])c4)c4c(c3c2c1)C(=O)NC4=O` was over 340 °C; that for `OC1c2ccccc2-c2nc(-c3ccc(Cl)cc3Cl)ncc21` (stereo not drawn) was 188 °C.
`COC(=O)c1ccc(O)cc1NC(=O)c1cccc2ccccc12` displayed a melting point of 246 to 248 °C.
Compound `COc1ccc2c(C=O)c(OCc3ccccc3)ccc2c1Br` showed a melting point of 214 to 220 °C.
Then `CCCc1c(OCC2Cc3c(ccc(C(C)=O)c3O)O2)ccc(C(C)=O)c1O` (stereo not drawn), with 104 to 106 °C.
In turn, `COC(=O)C1=C(C)NC(C)=C(C(=O)OC(C)C)C1c1cccc([N+](=O)[O-])c1` (stereo not drawn) had a melting point of 142 to 144 °C.
The value for `N#Cc1cnc2sc(-c3ccccc3)cc2c1NCc1ccc2[nH]ccc2c1` was 219 to 221 °C; that for `CNC(=O)CNc1cccc2c1C(=O)N(C1CCC(=O)NC1=O)C2=O` (stereo not drawn) was 210 to 212 °C.
Compound `CCOC(=O)C1=C(C)NC(C)=C(C(=O)OCC)C1c1ccccc1F` returned a melting point of 151 to 152 °C.
Then `O=C(N[C@H]1C[C@H](C(=O)O)Nc2cc(Cl)cc(Cl)c21)c1ccccc1Cl` (relative stereo), with 141 to 143 °C; and `CCOC(=O)CCN1CCN(C2=Nc3ccccc3Oc3ccc(Cl)cc32)CC1`, with 73 to 75 °C; and `COc1ccc(C(=O)C2=C(O)C(=O)N(c3nncs3)C2c2ccc(C(C)(C)C)cc2)cc1` (stereo not drawn), with 289 to 291 °C.
The compound `CS(=O)(=O)c1ccccc1C(N)=O` returned a melting point of 149 °C.
Then `CCOc1cc(N)c(Cl)cc1C(=O)NC[C@H]1CN(CC2CCN(C(=O)N3CCC3)CC2)CCO1`, with 166 to 168 °C; and `CC(C)c1c(-c2ccncc2)[nH]c2ccc(C3=NNC(=O)CC3)cc12`, with over 300 °C; and `Cc1ccc(F)cc1C(=O)Nc1ccc(C(=O)N2Cc3ccnn3Cc3ccccc32)cn1`, with 250 to 260 °C.
In turn, `O=C(CCl)c1ccc(CCO)cc1` returned a melting point of 41 to 45 °C.
Then `Nc1cc(C(=O)O)cc(S(N)(=O)=O)c1Nc1ccc2ccccc2c1`, with 245 °C.
Then `COC(=O)COc1cccc2c(CCSC(c3ccc(O)cc3)c3ccc(O)cc3)c(C)oc12`, with 178 to 180 °C.
The value for `Nc1ccc(Sc2cccc3nccn23)cc1` was 167 to 168 °C.
Compound `CNCc1nnc(-c2ccc3occ(-c4cccc(OC(F)(F)F)c4)c3c2)o1` displayed a melting point of 65 to 66 °C.
`O=S(=O)(Nc1ccc2cnccc2c1)c1ccccc1` displayed a melting point of 204 to 206 °C.
Then `Cc1ccc(-n2ncc(-c3ccc(S(C)(=O)=O)cc3)c(-c3ccc(F)cc3)c2=O)cc1`, with 190 to 192 °C.
In turn, `COC(=O)c1cccc([N+](=O)[O-])c1N` showed a melting point of 92 to 93 °C.
Then `COC(=O)C(Oc1cc(O)ccc1C#N)c1ccccc1C` (racemic), with 114 to 121 °C.
Then `CC(C)[C@H](NC(=O)OC(C)(C)C)[C@H]1CCn2c(c(C3=C(c4cn(-c5ccccc5)c5ccccc45)C(=O)OC3=O)c3ccccc32)C1`, with 148 to 150 °C; and `O=C1Nc2ccc(NCCCc3ccccc3)cc2C12OCCO2`, with 106 to 108 °C; and `CCOC(=O)C1=C(N)NC(N)=C(C(=O)OCC)C1c1cccc([N+](=O)[O-])c1`, with 175 to 176 °C.
The compound `Cc1ccc(-c2cn(C)cc(-c3ccccc3)c2=O)cc1C` returned a melting point of 108 to 111 °C.
`COc1cnnc(Oc2ccnc(OC(F)F)c2)c1` came in with a melting point of 119 to 120 °C.
The value for `COc1cc(NC(=O)N2CCOCN2)c(Cl)cc1Cl` was 128 to 130 °C; that for `CCCCCCCCCCCCCCOc1cc(C)ccc1C` was 36.9 to 37.9 °C; that for `CCC(C)n1ncn(-c2ccc(N3CCN(c4ccc(OC)cc4)CC3)cn2)c1=O` (stereo not drawn) was 139 to 140 °C.
The value for `Cc1cc(Sc2ccc(O)c(C)c2)ccc1O` was 124 °C.
Take `CCC=C1C([N+](=O)[O-])C2SCCCN2C(=O)N1C` (stereo not drawn): the melting point is 155 to 156 °C.
The value for `CCCc1c(OCCCOc2ccc(N)cc2)ccc(C(C)=O)c1O` was 75 to 77 °C.

One may read the melting point as the temperature, or range, at which the solid turns liquid.
